Results: US20260125375A1 (Pfizer Inc., priority 2022, published 2026)

Columns and labels:
CBL-B (residues 36-427) = biological target: T1, CBL-B (residues 36-427) (Homo sapiens, UniProt Q13191); test: Ligand Displacement Assay (LDA), HTRF competitive binding against BODIPY-labeled fluorescent tracer, CBL-B; details: geometric mean of the number of tests, read-out: CBL-B Ki (nM) GMean
T1 construct: Purified CBL-B (residues 36-427) and C-CBL (residues 46-435) proteins from baculovirus-infected insect cells; made in house; host or cells: baculovirus-infected insect cells
From the text: (§1) Ligand Displacement Assay (LDA)
(§2) The purpose of the homogeneous time-resolved fluorescence energy transfer (HTRF) ligand displacement assay is to determine whether the compounds of the disclosure are competitive with a BODIPY-labeled compound; “fluorescent tracer” aka [6-cyclopropyl-5-(17-{5-[(3,5-dimethyl-2H-pyrrol-2-ylidene-KN)methyl]-1H-pyrrol-2-yl-κN}-15-oxo-5,8,11-trioxa-2,14-diazaheptadecan-1-yl)-N-(3-{3-[(4-methyl-4H-1,2,4-triazol-3-yl)methyl]oxetan-3-yl}phenyl)pyridine-2-carboxamidato](difluorido)boron and to assess CBL-B binding selectivity over C-CBL. The synthesis of this fluorescent tracer compound is described below.
(§3) Purified CBL-B (residues 36-427) and C-CBL (residues 46-435) proteins from baculovirus-infected insect cells were biotin labeled on their amino-terminal AviTag™ epitopes by the E. coli biotin ligase BirA to bind terbium-labeled streptavidin (SA-Tb). After optimizing the assays and determining KD values for the fluorescent tracer to CBL-B and C-CBL, compounds were tested using three-fold serial dilutions in duplicate from a top concentration of […] with a final DMSO concentration of 2%. […] The Ki (nM) values reported are the geometric means (GMean) of the number of tests conducted.

C-CBL (residues 46-435) = biological target: T2, C-CBL (residues 46-435) (Homo sapiens, UniProt P22681); test: Ligand Displacement Assay (LDA), HTRF competitive binding against BODIPY-labeled fluorescent tracer, C-CBL; details: geometric mean of the number of tests, read-out: C-CBL Ki (nM) GMean
T2 construct: Purified CBL-B (residues 36-427) and C-CBL (residues 46-435) proteins from baculovirus-infected insect cells; made in house; host or cells: baculovirus-infected insect cells
T2 sequence (P22681 46-435): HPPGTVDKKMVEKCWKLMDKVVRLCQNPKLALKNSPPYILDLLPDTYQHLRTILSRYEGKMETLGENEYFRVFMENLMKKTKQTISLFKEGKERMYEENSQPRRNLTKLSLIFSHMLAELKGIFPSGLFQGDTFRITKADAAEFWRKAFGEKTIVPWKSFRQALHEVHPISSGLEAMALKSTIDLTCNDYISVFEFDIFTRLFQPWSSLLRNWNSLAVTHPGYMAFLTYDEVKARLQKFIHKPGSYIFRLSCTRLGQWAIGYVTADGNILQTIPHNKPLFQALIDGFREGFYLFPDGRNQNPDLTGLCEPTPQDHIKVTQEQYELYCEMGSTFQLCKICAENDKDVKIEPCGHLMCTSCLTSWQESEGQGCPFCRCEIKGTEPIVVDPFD
From the text: as §1, §2, §3

WT CBL-B (36-427) = biological target: T3, WT CBL-B (36-427) (Homo sapiens, UniProt Q13191); test: Surface Plasmon Resonance (SPR) assay, binding affinity and kinetics, CBL-B; details: SPR at 10° C., biotinylated WT CBL-B (36-427) on streptavidin chip; geometric mean; read-out: CBL-B SPR Kd (nM) GMean
T3 construct: N-terminal biotinylated WT CBL-B (36-427) and C-CBL (46-435) were captured on a streptavidin (SA) coated sensor chip
Protocol: (§4) Surface Plasmon Resonance (SPR) Assay
(§5) The purpose of the SPR assay is to evaluate the binding affinity and kinetics of the compound of disclosure binding to CBL-B and C-CBL.
(§6) The binding affinity and kinetics of compound binding to CBL-B and C-CBL were measured by Surface Plasmon Resonance (SPR) using either Biacore S200, 8K or 8K+ (Cytiva, Marlborough, MA) instruments. N-terminal biotinylated WT CBL-B (36-427) and C-CBL (46-435) were captured on a streptavidin (SA) coated sensor chip to achieve approximately 5000 to 6000 RUs of surface density. Un-functionalized SA surfaces with no immobilized protein served as reference for binding kinetic analysis. All the samples were prepared in buffer consisting of 10 mM HEPES, 150 mM NaCl, 0.05% Tween-20, 5% glycerol, […], 2% DMSO, pH 7.2. The same buffer was used as the running buffer during the experiments. Compound binding kinetics were measured in either multi-cycle or single-cycle kinetic format.
(§7) Multi-cycle kinetic analysis (MCK): A two-fold, 10-point serial dilution of test compounds was set-up in a 96-well microplate (Greiner; Cat #650101) with a top concentration of either 10 μM or 100 μM. Binding kinetics was measured at 10° C. by injecting serial dilution of compounds onto both reference and CBL immobilized channels at a flow rate of 100 μL/min and association time of 90 seconds. Compound dissociation was monitored for >400 seconds during each cycle. No additional regeneration was used. DMSO calibration curve was obtained before and after compound analysis by injecting 0-4% of DMSO in assay buffer. A suitable compound with known affinity and kinetics was tested once in every experiment as a positive control to assess activity of the captured proteins on the surface.
(§8) Single-cycle kinetic analysis (SCK): A 3-fold, 6-point serial dilution of compounds was set-up in a deep 96-well microplate (Greiner Bio; Cat #780201) with the highest concentration of 1 μM (concentration range: […]). Binding kinetics was measured at 10° C. by injecting serial dilutions of compounds in increasing order onto reference as well as CBL immobilized channels at a flow rate of 100 μL/min and association time of 120 seconds. Compound dissociation was monitored for >5400 seconds. Two buffer blanks were also run in a single-cycle kinetics format before the compound run for double referencing. No additional regeneration was used. DMSO calibration curve was obtained before and after compound analysis by injecting 0-4% of DMSO in the assay buffer. A suitable compound with known affinity and kinetics was tested once in every experiment as a positive control to assess activity of the captured proteins on the surface.

C-CBL (46-435) = biological target: T4, C-CBL (46-435) (Homo sapiens, UniProt P22681); test: Surface Plasmon Resonance (SPR) assay, binding affinity and kinetics, C-CBL; details: SPR at 10° C., biotinylated C-CBL (46-435) on streptavidin chip; geometric mean; read-out: C-CBL SPR Kd (nM) GMean
T4 construct: N-terminal biotinylated WT CBL-B (36-427) and C-CBL (46-435) were captured on a streptavidin (SA) coated sensor chip
T4 sequence (P22681 46-435): T2 sequence (P22681 46-435)
Protocol: as §4, §5, §6, §7, §8

Compound | Ki (CBL-B (residues 36-427)) | Ki (C-CBL (residues 46-435)) | Kd (WT CBL-B (36-427)) | Kd (C-CBL (46-435))
CCNC(C)c1nc(C(F)(F)F)cc2c(-c3cccc([C@H](c4nncn4C)C4CCC4)c3)n[nH]c12 (single isomer, unassigned) [Example C90] | 9.4 nM | 93.3 nM | 5.1 nM | 169 nM
C[C@H](N[C@H]1C[C@H](O)C1)c1nc(C(F)(F)F)cc2c(-c3cccc([C@H](c4nncn4C)C4CCC4)c3)n[nH]c12 (single isomer, unassigned) [Example C91] | 12.7 nM | 105 nM | 5.1 nM | 129 nM
CC(NC1CC(F)(F)C1)c1nc(C(F)(F)F)cc2c(-c3cccc(C4(Cc5nncn5C)COC4)c3)n[nH]c12 (single isomer, unassigned) [Example C93, 3,3-difluoro-N-{(1ξ)-1-[3-(3-{3-[(4-methyl-4H-1,2,4-triazol-3-yl)methyl]oxetan-3-yl}phenyl)-5-(trifluoromethyl)-1H-pyrazolo[3,4-c]pyridin-7-yl]ethyl}cyclobutan-1-amine] | 3.6 nM | 15.9 nM | 2.3 nM | 21.7 nM
CC(NC1CC(F)(F)C1)c1nc(C(F)(F)F)cc2c(-c3cccc(C4(Cc5nncn5C)COC4)c3)n[nH]c12 (single isomer, unassigned) [Example C94, 3,3-difluoro-N-{(1ξ)-1-[3-(3-{3-[(4-methyl-4H-1,2,4-triazol-3-yl)methyl]oxetan-3-yl}phenyl)-5-(trifluoromethyl)-1H-pyrazolo[3,4-c]pyridin-7-yl]ethyl}cyclobutan-1-amine] | 2.8 nM | 14.9 nM | 2.5 nM | 15 nM
CC(NC1CC2(COC2)C1)c1nc(C(F)(F)F)cc2c(-c3cccc([C@H](c4nncn4C)C4CCC4)c3)n[nH]c12 (single isomer, unassigned) [Example C97] | 31.8 nM | 141 nM | 9.6 nM | 242 nM
CC(NC1CC2(COC2)C1)c1nc(C(F)(F)F)cc2c(-c3cccc([C@H](c4nncn4C)C4CCC4)c3)n[nH]c12 (single isomer, unassigned) [Example C98] | 26.9 nM | 109 nM | 11.3 nM | 205 nM
CN[C@@H](C)c1nc(C(F)(F)F)cc2c(-c3cccc(C4(Cc5nncn5C)COC4)c3)n[nH]c12 (single isomer, unassigned) [Example D37] | 22.2 nM | 64.5 nM | 7.9 nM | 68.6 nM
CN[C@H](C)c1nc(C(F)(F)F)cc2c(-c3cccc(C4(Cc5nncn5C)COC4)c3)n[nH]c12 (single isomer, unassigned) [Example D38] | 34 nM | 135 nM | 10 nM | 110 nM
C[C@@H](c1nc(C(F)(F)F)cc2c(-c3cccc(C4(Cc5nncn5C)COC4)c3)n[nH]c12)N(C)C (single isomer, unassigned) [Example D39] | 42.1 nM | 229 nM | 14.9 nM | 164 nM
C[C@H](c1nc(C(F)(F)F)cc2c(-c3cccc(C4(Cc5nncn5C)COC4)c3)n[nH]c12)N(C)C (single isomer, unassigned) [Example D40] | 23.9 nM | 98.1 nM | 5.5 nM | 88.5 nM
C[C@@H](c1nc(C(F)(F)F)cc2c(-c3cccc(C4(Cc5nncn5C)COC4)c3)n[nH]c12)N1CCC1 (single isomer, unassigned) [Example D41] | 18.5 nM | 65.5 nM | 6.2 nM | 50.8 nM
C[C@H](c1nc(C(F)(F)F)cc2c(-c3cccc(C4(Cc5nncn5C)COC4)c3)n[nH]c12)N1CCC1 (single isomer, unassigned) [Example D42] | 35.3 nM | 163 nM | 9.4 nM | 59.8 nM
C[C@@H](c1nc(C(F)(F)F)cc2c(-c3cccc(C4(Cc5nncn5C)COC4)c3)n[nH]c12)N1CC(F)C1 (single isomer, unassigned) [Example D43] | 14.5 nM | 75.1 nM | 6.7 nM | 80.2 nM
C[C@H](c1nc(C(F)(F)F)cc2c(-c3cccc(C4(Cc5nncn5C)COC4)c3)n[nH]c12)N1CC(F)C1 (single isomer, unassigned) [Example D44] | 15.6 nM | 47.4 nM | 5.9 nM | 74 nM
C[C@@H](c1nc(C(F)(F)F)cc2c(-c3cccc(C4(Cc5nncn5C)COC4)c3)n[nH]c12)N1CC(F)(F)C1 (single isomer, unassigned) [Example D45] | 19.9 nM | 80.3 nM | 5.2 nM | 83.9 nM
C[C@H](c1nc(C(F)(F)F)cc2c(-c3cccc(C4(Cc5nncn5C)COC4)c3)n[nH]c12)N1CC(F)(F)C1 (single isomer, unassigned) [Example D46] | 46.5 nM | 250 nM | 12.2 nM | 184 nM
C[C@@H](c1nc(C(F)(F)F)cc2c(-c3cccc(C4(Cc5nncn5C)COC4)c3)n[nH]c12)N1CCCC1 (single isomer, unassigned) [Example D47] | 36.9 nM | 162 nM | 16.3 nM | 193 nM
C[C@H](c1nc(C(F)(F)F)cc2c(-c3cccc(C4(Cc5nncn5C)COC4)c3)n[nH]c12)N1CCCC1 (single isomer, unassigned) [Example D48] | 16.1 nM | 44.9 nM | 9.3 nM | 74.6 nM
